Data: patent US20170066797A1, “WITHAFERIN A ANALOGS AND USES THEREOF” (Whitehead Institute for Biomedical Research, priority 2008, published 2017)

Tests used:
[1] = test system: minimal heat shock response element derived from the promoter region of the Hsp70B gene; experiment: Heat shock reporter (EGFP) induction; assay type: cell-based; settings: overnight exposure, FIG. 8
Method: FIG. 8. Heat shock reporter induction measured by micro plate fluorimeter. Reporter cells stably transduced with a plasmid encoding enhanced green fluorescent protein (EGFP) under the control of a minimal heat shock response element were exposed to 2,3-dihydrowithaferin A-3β-O-sulfate (WA-SO4) or withaferin A (WA) at the indicated concentrations overnight. Relative fluorescence units (RFU) per well were determined as a measure of reporter activation. Each point represents the mean of nine determinations from three independent experiments.
Immortalized mouse embryo fibroblasts derived from homozygous Hsf1 knockout mice or their wild type littermates were exposed overnight to equitoxic concentrations of 1 or the known heat shock-inducing Hsp90 inhibitor gendanamycin. Whole cell lysates were prepared in non-ionic detergent buffer and immunoblotted for relative levels of Hsp72, a highly inducible member of the Hsp70 family of molecular chaperones, using monoclonal antibody C92F3A-5 (StressMarq Biosciences, Victoria, BC). Reactivity was detected using peroxidase-conjugated secondary antibody and chemiluminescent detection. To evaluate the relative ability of compounds to induce a heat shock response at the transcriptional level, a reporter cell line was used as previously described (Turbyville, et al., J. Nat. Prod. (2006) 69: 178-184, incorporated herein by reference). […]

[2] = test system: Hsp72, Hsp27; experiment: Heat-shock protein induction in organs after IP administration; assay type: in vivo, mice; settings: IP 18 mg/kg/day, 16 hours after last injection, FIG. 10
Method: FIG. 10. Heat-shock protein induction following Withaferin A (WA) administration to mice. WA was formulated in DMSO/Cremophor/Saline vehicle and injected intraperitoneally (IP) at a total dose of 18 mg/kg/day, either as a single injection (WA ×1) or divided in two 9 mg/kg injections (WA ×2) spaced 6 hrs apart. Control animals received an equal volume of vehicle alone as a single injection. Mice were sacrificed 16 hours after the last injection, organs harvested and protein lysates prepared for immunoblotting. Equal loading of samples was confirmed by staining membranes for total protein (left panels). The relative tissue levels of Hsp72, Hsp27 and Annexin 2 (a putative target of Withaferin A) were determined by probing with specific antibodies as indicated. Note the robust induction of heat shock protein levels in spleen (Annexin 2 positive), but not normal brain (Annexin 2 negative) associated with prior Withaferin A exposure.

SMILES: CC1=C(CO)C(=O)OC([C@@H](C)C2CCC3C4C[C@H]5O[C@]56[C@@H](O)C=CC(=O)[C@]6(C)C4CC[C@@]32C)C1 (stereo partly drawn) [Withaferin A]
- heat shock reporter induction [1]: response can be induced at compound exposures compatible with cell survival
- heat shock response induction in brain ([2]; annexin II absent): not in brain cells
- heat shock response induction in spleen ([2]; annexin II present): induces the heat shock response in spleen cells
